Assay results as given in patent publication US9475773B2, “NK3 receptor antagonist compound (NK3RA) for use in a method for the treatment of polycystic ovary syndrome (PCOS)” (ASTRAZENECA AB, priority 2013, dated 2016).

How the values were obtained:
hrNK3 receptor = biological target: T1, hrNK3 receptor (Homo sapiens, UniProt P29371); assay: Intracellular Calcium Mobilisation Assay (hrNK3 CHO-K1 cells, Senktide, FLIPR); type: cell-based
T1 construct: expressed in transfected cells; host or cells: CHO-K1
T1 sequence (P29371 1-465): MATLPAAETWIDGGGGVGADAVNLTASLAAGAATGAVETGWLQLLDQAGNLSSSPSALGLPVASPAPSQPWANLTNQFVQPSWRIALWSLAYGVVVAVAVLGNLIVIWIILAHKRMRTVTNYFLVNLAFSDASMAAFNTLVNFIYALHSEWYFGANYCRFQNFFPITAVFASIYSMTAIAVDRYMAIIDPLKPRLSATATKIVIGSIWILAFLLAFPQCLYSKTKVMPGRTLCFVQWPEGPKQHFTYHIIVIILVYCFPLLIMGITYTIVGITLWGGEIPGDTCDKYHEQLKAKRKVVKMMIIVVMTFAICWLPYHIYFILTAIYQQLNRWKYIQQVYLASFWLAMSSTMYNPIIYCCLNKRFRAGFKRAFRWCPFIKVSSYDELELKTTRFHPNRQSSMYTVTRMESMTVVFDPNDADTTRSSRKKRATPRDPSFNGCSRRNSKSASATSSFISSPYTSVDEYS
Description: The activity of a compound in antagonising the hrNK3 receptor expressed in CHO cells may be measured in the following Intracellular Calcium Mobilisation Assay:
CHO-K1 cells stably transfected with human recombinant Neurokinin-3 receptor (hrNK3 CHO-K1) were cultured in […] tissue culture flasks as monolayers in complete Ham's F-12 media (supplemented with 10% (v/v) FBS, 2 mM L-glutamine and […] Hygromycin B). Cultures are maintained under standard tissue culture conditions. For experiments, PBS was used to wash cells free of culture media and Trypsin was used to detach cells from the flask surface. Cells were counted, pelleted by centrifugation (100 g for 5 min) and resuspended in cell plating medium (UltraCULTURE by BioWhittaker 12-725F containing 200 mM L-Glutamine). […]
Changes in intracellular free calcium were measured fluorometrically by loading hrNK3 CHO-K1 in 384-well plates with the calcium sensitive fluorescent dye, Fluo-4AM as described previously (Xiong et. al., Bioorg. Med. Chem. Lett. 2011, 21, 1896). […]
A test compound was pre-dissolved in DMSO and incubated with cells to a final concentration of 0.1% (v/v) DMSO for 15 minutes. Assays were initiated by the addition of Senktide (purchased from Bachem) and the transient increase in Fluo-4-fluorescence monitored using a FLIPR (Fluorometric Imaging Plate Reader, Molecular Devices, Sunnyvale, U.S.A.).

NK3 receptor = biological target: T2, NK3 receptor (Homo sapiens, UniProt P29371); assay: In vitro target engagement; type: binding; settings: n=12
T2 sequence (P29371 1-465): T1 sequence (P29371 1-465)

mice = assay: Neurobehavioral test battery in mice; type: in vivo; settings: oral doses 100, 300 and 600 mg/kg
Description: (§1) Safety pharmacology studies were carried out on NK3RA and included tests to investigate possible effects on the central nervous system (CNS), cardiovascular system, and respiratory system.

rat [1] = assay: Modified rat Irwin test; type: in vivo; settings: oral 46, 460 and 2022 mg/kg
Description: as §1

rats = assay: Cardiovascular effects in rats; type: in vivo, rat; settings: 46 mg/kg orally (100 μmol/kg), highest dose tested
rat [2] = assay: Rat cocaine drug discrimination assay; type: in vivo; settings: oral doses up to 46 mg/kg
[3] = Pharmacokinetics and metabolism in rats; type: in vivo, rat
Description: At low doses, the estimated Clp of The NK3RA was moderate in rat (8.3 ml/min/kg) and low in the dog (1.2 ml/min/kg). Bioavailability (F) was ˜100% in both species indicating extensive absorption in these species. The volume of distribution (Vz) was moderate (1.6 L·kg in rat and 0.81 L/kg in dog) and consistent with the physico-chemical properties of the compound. […] The NK3RA exposure decreased after multiple dosing in rats, indicating either changes in absorption or induction of The NK3RA metabolism, or both, after multiple dosing. […] T1/2 values ranged from 5.6 hours to 14.3 hours at the end of dosing for dogs dosed at 1000 mg/kg/day (2180 μmol/kg/day). There were no consistent sex differences observed in the exposure to NK3RA in these 2 species.
Following oral administration of The NK3RA in the rat, a pharmacologically active ketone metabolite appeared rapidly in plasma but slowly reached maximum concentration levels in all animals. […] T1/2 values ranged from 8.51 hours to 13.8 hours on Day 27 and Day 28 for dogs dosed with 1000 mg/kg/day (2180 μmol/kg/day) of the NK3RA. There were no consistent sex differences observed in the exposure to the metabolite in these 2 species.

[4] = Pharmacokinetics in humans (healthy male subjects); type: in vivo, human
Description: Pharmacokinetic properties have been investigated in healthy male subjects. […] The elimination half-life for the NK3RA was approximately 7 hours. […] Renal elimination of the NK3RA or its metabolite was negligible. Following multiple dose administration, pharmacokinetic steady state was achieved within 4 days. At steady state, the exposure to the metabolite was approximately 66% of the parent circulated; the accumulation of the NK3RA in the plasma was minimal following QD dosing and was greater following BID dosing.

serum testosterone = assay: Phase II PoP schizophrenia trial, serum testosterone; type: in vivo, human; settings: schizophrenia patients, 40 mg QD

In the case of CC[C@H](NC(=O)c1c(NS(C)(=O)=O)c(-c2ccccc2)nc2ccccc12)c1ccccc1 [NK3RA, 3-(methanesulfonamido)-2-phenyl-N-[(1S)-1-phenylpropyl]quinoline-4-carboxamide], the “activity at the hrNK3 receptor expressed in CHO cells” value (hrNK3 receptor) is reported as “antagonist of the hrNK3 receptor”, the IC50 (NK3 receptor) is reported as 2.24 ± 0.57 nM and the neurobehavioral effects (mice) is reported as “transient deficits in gait and spontaneous motor activity”. For the same compound, the “time to full recovery” value (mice) was no more than 24 h, the “findings in modified Irwin test” value (rat [1]) was “no significant findings” and the cardiovascular effects (rats) was “no cardiovascular effects”. The “activity in cocaine drug discrimination” value (rat [2]) was “no activity”, the clearance ([3]; plasma, rat, low doses, estimated, read-out: Clp) was 8.3 mL/min/kg and the volume of distribution (Vz) ([3]; rat) was 1.6 L/kg. The rate of absorption ([3]; rat, oral administration) was “absorbed at a moderate rate”, the bioavailability ([3]; rat, plasma, oral, read-out: Bioavailability (F)) was roughly 100% and the half-life ([3]; rat, plasma, read-out: elimination half-life (T½) (converted)) was 192 min. For the same compound, the “exposure after multiple dosing” value ([3]; rats) was “decreased”, the “accumulation in the plasma” value ([4]; BID dosing (compared with QD)) was “greater” and the “accumulation in the plasma” value ([4]; QD dosing) was “minimal”. For the same compound, the “absorption following oral dosing” value ([4]; healthy male subjects) was “quickly absorbed”, the renal elimination ([4]; healthy male subjects) was “negligible” and the “time dependence of pharmacokinetics” value ([4]; human, in vivo) was “time independent”. The half-life ([4]; human, plasma, oral, healthy male subjects, read-out: elimination half-life (converted)) was roughly 420 min, the “time to pharmacokinetic steady state” value ([4]; multiple dose administration) was no more than 4 days and the “dose proportionality of AUC and Cmax” value ([4]; up to approximately 80 mg) was “dose proportional”. For the same compound, the serum testosterone (serum testosterone) was “reduction in serum testosterone”.
